According to US10301664B2, “Repurposing non-antimicrobial drugs and clinical molecules to treat bacterial infections” (Purdue Research Foundation, priority 2015, dated 2019):
In brackets after ≈: the same amount, converted by molar mass.

Key:
[1] = system: MRSA USA300 persister cells tolerant to ciprofloxacin; assay: Killing of S. aureus persister cells; assay type: cell-based; conditions: added after ciprofloxacin treatment; 48 h
[2] = system: K. pneumoniae ATCC BAA-1705; assay: Library hits: MIC against K. pneumoniae; assay type: cell-based
[3] = system: A. baumannii ATCC BAA-1605; assay: Library hits: MIC against A. baumannii; assay type: cell-based
[4] = system: vancomycin resistant E. faecium ATCC 700221 (VRE); assay: Library hits: MIC/MBC against VRE; assay type: cell-based
[5] = system: P. aeruginosa ATCC 15442; assay: Library hits: MIC against P. aeruginosa; assay type: cell-based
[6] = system: E. cloacae ATCC BAA-1143; assay: Library hits: MIC against E. cloacae; assay type: cell-based
[7] = system: MRSA USA300; assay: Library hits: MIC/MBC against MRSA; assay type: cell-based, Staphylococcus aureus; conditions: Staphylococcus aureus
[8] = system: MRSA USA300; assay: Mouse-model of staphylococcal skin infection: bacterial load; assay type: in vivo, BALB/c mice; conditions: topical 20 mg of 2% in petroleum jelly, twice a day for 5 days
Protocol: Auranofin and ebselen were evaluated in a mouse-model of staphylococcal skin infection. Seven groups of BALB/c mice (n=5) were inoculated with MRSA USA300 (4.3×10^9 CFU/ml) intradermally. 48 hours after infection and formation of open wound, four groups were treated topically with 20 mg of 2% Ebselen, 2% Auranofin, 2% mupirocin or 2% […] in petroleum jelly (ointment—skin protectant). Two groups were treated orally with either linezolid or clindamycin (25 mg/kg). The last group received the vehicles alone (petroleum jelly). All groups were treated twice a day for 5 days.
Since the clinical severity of bacterial skin infections is driven by the excess host pro-inflammatory cytokines rather than by bacterial burden, the recognized anti-inflammatory response of Auranofin and Ebselen combined with the potent antimicrobial, killing intracellular MRSA, and antibiofilm activities, should provide great advantage in the treatment of bacterial skin infection and wound healing. In this Example, we evaluated Auranofin and Ebselen in a mouse-model of staphylococcal skin infection. Seven groups of BALB/c mice (n=5) were inoculated with MRSA USA300 (4.3×10^9 CFU/ml) intradermally. 48 hours after infection and formation of open wound, four groups were treated topically with 20 mg of 2% ebselen, 2% auranofin, 2% mupirocin or 2% […] in petroleum jelly (ointment—skin protectant). […]

[9] = system: S. Typhimurium; assay: MIC against G-ve with and without colistin: S. Typhimurium; assay type: cell-based
[10] = system: VISA and VRSA (14) clinical isolates; assay: MIC against Gram +ve clinical isolates: VISA and VRSA; assay type: cell-based, S. aureus
[11] = system: intracellular MRSA USA300 in J774A.1 cells; assay: Activity against intracellular MRSA in J774A.1 cells; assay type: cell-based; conditions: compared to vancomycin and linezolid
[12] = system: rabbit reticulocyte lysate system (mammalian protein synthesis); assay: Mammalian protein synthesis in rabbit reticulocyte lysate system; assay type: biochemical
Source text: (IC50) of Auranofin in rabbit reticulocyte extract. […] The results are given as means±SD (data without error bars indicate that the SD is too small to be seen).
(§1) In this Example, we tested the effects of the two drugs on bacterial, mammalian and mitochondrial protein-synthesis. For bacterial protein-synthesis inhibition, we used E. coli cellular extracts in a transcription and translation assay that monitors protein production via luciferase readout.

[13] = in vivo; cited from earlier work
[14] = system: MRSA USA300; assay: Non-lethal MRSA infection mice model; assay type: in vivo; conditions: two doses oral 0.25 mg/kg
Source text: (§2) For MRSA systemic infection, neutropenic Female BALB/c mice were inoculated IP with 1×10^9 MRSA USA300.

[15] = system: P. aeruginosa; assay: MIC against G-ve with and without colistin: P. aeruginosa; assay type: cell-based
[16] = system: MRSA USA300; assay: Mouse model of MRSA systemic infection (lethal); assay type: in vivo, BALB/c mice; conditions: three doses
Source text: as §2

[17] = system: MRSA USA300-0114 toxins hla and PVL; assay: MRSA toxin production by ELISA; assay type: cell-based, S. aureus; conditions: 1 hour incubation
[18] = system: S. epidermidis biofilm; assay: Reduction of adherent S. epidermidis biofilm; assay type: cell-based; conditions: compared to linezolid, mupirocin, vancomycin, rifampicin
Source text: (§3) Biofilms are a major contributing factor to lack of healing of chronic wounds, as the matrix-embedded bacteria are recalcitrant to antibiotics and host immune response, rendering them extremely challenging and costly to treat.

[19] = system: multiple MRSA and VRSA strains; assay: Synergy with conventional antimicrobials in vitro; assay type: cell-based, S. aureus; conditions: most tested conventional antimicrobials, all tested strains (few exceptions such as VRSA5)
[20] = system: A. baumannii; assay: MIC against G-ve with and without colistin: A. baumannii; assay type: cell-based
[21] = system: S. aureus; assay: Macromolecular synthesis (MMS): incorporation of radioactive precursors; assay type: cell-based
Source text: In this Example we examined the effect of Auranofin and Ebselen on incorporation of radioactive precursors into macromolecules in S. aureus.

[22] = system: E.. coli O157:H7; assay: MIC against G-ve with and without colistin: E. coli O157:H7; assay type: cell-based
[23] = system: Colistin resistant clinical isolates of P. aeruginosa; assay: MIC against G-ve with and without colistin: colistin resistant P. aeruginosa; assay type: cell-based; conditions: without colistin
[24] = system: K. pneumonia; assay: MIC against G-ve with and without colistin: K. pneumonia; assay type: cell-based
[25] = system: pro-inflammatory cytokines (TNF-α, IL-6, IL-1β, MCP-1); assay: Cytokines production in MRSA skin infection in mice; assay type: in vivo; conditions: topical application
Source text: Each points represents single mice and each group has 5 mice. P values of (*P≤0.05) (**P≤0.01) are considered as significant. We investigated the immunomodulatory activity of Auranofin and ebselen in a topical application against MRSA skin infection in mice.
In this Example, we investigated the immunomodulatory activity of Auranofin and Ebselen in a topical application against MRSA skin infection in mice. […] These cytokines are thought to play a greater role in the severity of S. aureus skin infections more than the size of the bacterial burden and can lead to an infection persisting for a longer time period. Therefore, the ability of Auranofin and Ebselen reduces the production of these cytokines in the infected mice, indicating the clinical relevance of these drugs if used for antimicrobial treatment.

[26] = system: E. coli cellular extracts (bacterial translation process); assay: Bacterial transcription and translation assay, luciferase readout; assay type: biochemical
Source text: For bacterial protein-synthesis inhibition, E. coli cellular extracts in a transcription and translation assay were used to monitor protein production via luciferase readout.
as §1

[27] = system: MRSA (23) clinical isolates; assay: MIC against Gram +ve clinical isolates: MRSA; assay type: cell-based, S. aureus; conditions: for MIC50: MRSA (23)
[28] = system: S. aureus biofilm; assay: Reduction of adherent S. aureus biofilm; assay type: cell-based; conditions: compared to linezolid, mupirocin, vancomycin, rifampicin
Source text: as §3

[29] = system: VRE (14) clinical isolates; assay: MIC against Gram +ve clinical isolates: VRE; assay type: cell-based, enterococcus
[30] = system: intracellular MRSA; assay: Synergy with conventional antimicrobials in infected cell cultures; assay type: cell-based; conditions: compared to monotherapy
[31] = concentrations significantly below the MIC

## C=C[C@]1(C)C[C@@H](OC(=O)CS[C@@H]2C[C@H]3CC[C@@H](C2)N3C)[C@]2(C)[C@H](C)CC[C@]3(CCC(=O)[C@H]32)[C@@H](C)[C@@H]1O [retapamulin]
[1]
  effect on number of planktonic persister cells: minimal impact

## CCCCCCCCCOc1ccc2[nH]cc(CCN)c2c1 [5-Nonyloxytryptamine]
[2]
  MIC/MBC: >16 µM
[3]
  MIC/MBC: 16 µM (≈ 4.84 µg/mL)
[4]
  MIC: 8 µM (≈ 2.42 µg/mL)
[5]
  MIC/MBC: >16 µM
[6]
  MIC/MBC: 16 µM (≈ 4.84 µg/mL)
[7]
  MBC: 8 µM (≈ 2.42 µg/mL)
  MIC: 4 µM (≈ 1.21 µg/mL)

## CC(=O)OC[C@H]1O[C@@H]([S-])[C@H](OC(C)=O)[C@@H](OC(C)=O)[C@@H]1OC(C)=O.CCP(CC)CC.[Au+] [Auranofin]
[8]
  bacterial load in MRSA skin lesions: significantly reduced the bacterial load
[9]; without colistin
  MIC, colistin (−): 128 µg/mL
[10]; first column per drug
  MIC50: 0.062 µg/mL
[10]; second column per drug
  MIC50: 0.062 µg/mL
[11]
  reduction of intracellular MRSA: superior in reducing intracellular MRSA
[12]
  inhibition of translation in mammalian protein synthesis: did not inhibit translation
[13]
  clinically achievable blood concentration: 2.37 µg/mL
[14]
  bacterial load in the liver and spleen: significantly reduced the bacterial load
[15]; with sub-inhibitory colistin 0.25 μg/ml
  MIC, colistin (+): 0.0312 µg/mL
[15]; without colistin
  MIC, colistin (−): 256 µg/mL
[16]; oral 0.125 mg/kg once daily
  mice survival: 40%
[16]; oral 0.25 mg/kg once daily
  mice survival: 80%
[17]
  production of toxin PVL: significantly suppressed toxin production
  production of toxin hla: significantly suppressed toxin production
[18]
  reduction of adherent biofilm: superior in reducing adherent biofilms
[19]
  relationship with conventional antimicrobials in vitro: synergistic relationship
[1]
  effect on number of planktonic persister cells: complete eradication of planktonic persister cells
[20]; with sub-inhibitory colistin 0.0625 μg/ml
  MIC, colistin (+): 0.25 µg/mL
[20]; without colistin
  MIC, colistin (−): 16 µg/mL
[21]; [31]
  DNA synthesis inhibition: clear dose-dependent disruption
  cell wall synthesis inhibition: clear dose-dependent disruption
  protein synthesis inhibition: clear dose-dependent disruption
[21]; up to 4×MIC
  effect on RNA synthesis: no significant effect
  effect on lipid synthesis: no significant effect
[22]; E. coli O157:H7, with sub-inhibitory colistin 0.0625 μg/ml
  MIC, colistin (+): 0.0625 µg/mL
[22]; E. coli O157:H7, without colistin
  MIC, colistin (−): 64 µg/mL
[23]
  MIC, colistin (−): >256 µg/mL
[24]; with sub-inhibitory colistin 0.125 μg/ml
  MIC, colistin (+): 0.125 µg/mL
[24]; without colistin
  MIC, colistin (−): 256 µg/mL
[25]
  level of IL-6: significantly reduced
  level of TNF-α: significantly reduced
[25]; data not shown
  level of IL-1β: significantly reduced
  level of MCP-1: significantly reduced
[26]
  IC50 of bacterial translation: 0.038 µg/mL
[27]; first column per drug
  MIC50: 0.062 µg/mL
[27]; second column per drug
  MIC50: 0.125 µg/mL
[27]; MRSA isolates
  MIC90 (MICs at which 90% of MRSA isolates were inhibited): 0.125 µg/mL
[28]
  reduction of adherent biofilm: superior in reducing adherent biofilms
[29]; first column per drug
  MIC50: 0.125 µg/mL
[29]; second column per drug
  MIC50: 0.125 µg/mL

## CC[C@H]1OC(=O)[C@H](C)[C@@H](O[C@H]2C[C@@](C)(OC)[C@@H](O)[C@H](C)O2)[C@H](C)[C@@H](O[C@@H]2O[C@H](C)C[C@H](N(C)C)[C@H]2O)[C@](C)(O)C[C@@H](C)C(=O)[C@H](C)[C@@H](O)[C@]1(C)O [erythromycin]
[30]
  activity when combined with Auranofin and Ebselen in infected cell cultures: synergistic activity

## CC(=O)NC[C@H]1CN(c2ccc(N3CCOCC3)c(F)c2)C(=O)O1 [linezolid]
[16]; oral 25 mg/kg once daily
  mice survival: significantly increased mice survival
[1]
  effect on number of planktonic persister cells: minimal impact

## colistin
[9]
  MICs of colistin: 1 µg/mL
[15]
  MICs of colistin: 0.5 µg/mL
[20]
  MICs of colistin: 0.25 µg/mL
[22]; E. coli O157:H7
  MICs of colistin: 0.25 µg/mL
[24]
  MICs of colistin: 0.25 µg/mL
